Source: US9529005B2, “Modulating bacterial MAM polypeptides in pathogenic disease” (priority 2011, dated 2016)
In brackets after ≈: the same amount, converted by molar mass. Like-named read-outs stand apart in the source and are kept apart here.

Assays:
Assay in all cases: Antimicrobial susceptibility testing (MIC), BD Phoenix Automated Microbiology System; as to interpretation of the result: key: R, resistant; I, intermediate; S, susceptible; R*: *As a rule, when ESBL is detected, an interpretation of susceptible or intermediate for penicillins, cephalosporins and aztreonam is reported as resistant
Assay type in all cases: cell-based
[1] = tested on: Klebsiella ssp.; conditions: for MIC: Klebsiella; as to interpretation of the result: key: R, resistant; I, intermediate; S, susceptible; R*: *As a rule, when ESBL is detected, an interpretation of susceptible or intermediate for penicillins, cephalosporins and aztreonam is reported as resistant
Description: (§1) The inventors performed antimicrobial susceptibility testing (AST) by determining the minimal inhibiting concentration (MIC) of a panel of antimicrobials on all twenty bacterial isolates using the BD Phoenix Automated Microbiology System (Table 3). Antimicrobial panels included several drugs from each of the four most commonly used classes of antimicrobials, aminoglycosides, β-lactams, carbapenems and fluoroquinolones. The panels also included antimicrobials from other classes, such as trimethoprim/sulfamethoxazole, but resistance to these was not considered in the classification of isolates as multidrug-resistant.

[2] = tested on: Escherichia coli; conditions: for MIC: Escherichia coli; as to interpretation of the result: key: R, resistant; I, intermediate; S, susceptible; R*: *As a rule, when ESBL is detected, an interpretation of susceptible or intermediate for penicillins, cephalosporins and aztreonam is reported as resistant
Description: as §1

[3] = tested on: Pseudomonas aeruginosa; conditions: for MIC: Pseudomonas aeruginosa; as to interpretation of the result: key: R, resistant; I, intermediate; S, susceptible; R*: *As a rule, when ESBL is detected, an interpretation of susceptible or intermediate for penicillins, cephalosporins and aztreonam is reported as resistant
Description: as §1

[4] = tested on: Acinetobacter baumannii
Description: as §1

[5] = Pseudomonas aeruginosa isolate 1
[6] = Pseudomonas aeruginosa isolate 2
[7] = Pseudomonas aeruginosa isolate 3
[8] = Pseudomonas aeruginosa isolate 4
[9] = Pseudomonas aeruginosa isolate 5
[10] = Acinetobacter baumannii isolate 1
[11] = Acinetobacter baumannii isolate 2
[12] = Acinetobacter baumannii isolate 3
[13] = Acinetobacter baumannii isolate 4
[14] = Acinetobacter baumannii isolate 5
[15] = read-out: minimal inhibiting concentration, Klebsiella ssp. isolate 2
[16] = read-out: minimal inhibiting concentration, Klebsiella ssp. isolate 3
[17] = read-out: minimal inhibiting concentration, Klebsiella ssp. isolate 4
[18] = read-out: minimal inhibiting concentration, Escherichia coli isolate 1
[19] = read-out: minimal inhibiting concentration, Escherichia coli isolate 2
[20] = read-out: minimal inhibiting concentration, Escherichia coli isolate 3
[21] = read-out: minimal inhibiting concentration, Escherichia coli isolate 4
[22] = read-out: minimal inhibiting concentration, Escherichia coli isolate 5
[23] = read-out: minimal inhibiting concentration, Pseudomonas aeruginosa isolate 1
[24] = read-out: minimal inhibiting concentration, Pseudomonas aeruginosa isolate 2
[25] = read-out: minimal inhibiting concentration, Pseudomonas aeruginosa isolate 3
[26] = read-out: minimal inhibiting concentration, Pseudomonas aeruginosa isolate 4
[27] = read-out: minimal inhibiting concentration, Pseudomonas aeruginosa isolate 5

Molecule: NCC[C@H](O)C(=O)N[C@@H]1C[C@H](N)[C@@H](O[C@H]2O[C@H](CN)[C@@H](O)[C@H](O)[C@H]2O)[C@H](O)[C@H]1O[C@H]1O[C@H](CO)[C@@H](O)[C@H](N)[C@H]1O [Amik., Amikacin]
- interpretation of the result ([1]; Klebsiella ssp. isolate 1): S
- minimal inhibiting concentration ([1]; Klebsiella ssp. isolate 1): ≤ 8 µg/mL
- interpretation of the result ([1]; Klebsiella ssp. isolate 2): S
- minimal inhibiting concentration ([1]; Klebsiella ssp. isolate 2): ≤ 8 µg/mL
- interpretation of the result ([1]; Klebsiella ssp. isolate 3): S
- minimal inhibiting concentration ([1]; Klebsiella ssp. isolate 3): ≤ 8 µg/mL
- interpretation of the result ([1]; Klebsiella ssp. isolate 4): S
- minimal inhibiting concentration ([1]; Klebsiella ssp. isolate 4): ≤ 8 µg/mL
- interpretation of the result ([1]; Klebsiella ssp. isolate 5): R
- minimal inhibiting concentration ([1]; Klebsiella ssp. isolate 5): > 32 µg/mL
- interpretation of the result ([2]; Escherichia coli isolate 1): S
- minimal inhibiting concentration ([2]; Escherichia coli isolate 1): ≤ 8 µg/mL
- interpretation of the result ([2]; Escherichia coli isolate 2): S
- minimal inhibiting concentration ([2]; Escherichia coli isolate 2): ≤ 8 µg/mL
- interpretation of the result ([2]; Escherichia coli isolate 3): S
- minimal inhibiting concentration ([2]; Escherichia coli isolate 3): ≤ 8 µg/mL
- interpretation of the result ([2]; Escherichia coli isolate 4): S
- minimal inhibiting concentration ([2]; Escherichia coli isolate 4): ≤ 8 µg/mL
- interpretation of the result ([2]; Escherichia coli isolate 5): S
- minimal inhibiting concentration ([2]; Escherichia coli isolate 5): ≤ 8 µg/mL
- interpretation of the result [3, 5]: S
- minimal inhibiting concentration [3, 5]: ≤ 8 µg/mL
- interpretation of the result [3, 6]: S
- minimal inhibiting concentration [3, 6]: 16 µg/mL (≈ 27.3 µM)
- interpretation of the result [3, 7]: S
- minimal inhibiting concentration [3, 7]: 16 µg/mL (≈ 27.3 µM)
- interpretation of the result [3, 8]: I
- minimal inhibiting concentration [3, 8]: 32 µg/mL (≈ 54.6 µM)
- interpretation of the result [3, 9]: I
- minimal inhibiting concentration [3, 9]: 32 µg/mL (≈ 54.6 µM)
- interpretation of the result [4, 10]: R
- minimal inhibiting concentration [4, 10]: > 32 µg/mL
- interpretation of the result [4, 11]: R
- minimal inhibiting concentration [4, 11]: > 32 µg/mL
- interpretation of the result [4, 12]: I
- minimal inhibiting concentration [4, 12]: 32 µg/mL (≈ 54.6 µM)
- interpretation of the result [4, 13]: R
- minimal inhibiting concentration [4, 13]: > 32 µg/mL
- interpretation of the result [4, 14]: R
- minimal inhibiting concentration [4, 14]: > 32 µg/mL

Molecule: Cc1nnc(SCC2=C(C(=O)O)N3C(=O)[C@@H](NC(=O)Cn4cnnn4)[C@H]3SC2)s1 [Cefa., Cefazolin]
- interpretation of the result ([1]; Klebsiella ssp. isolate 2): R
- interpretation of the result ([1]; Klebsiella ssp. isolate 3): R
- interpretation of the result ([1]; Klebsiella ssp. isolate 4): R
- MIC [1, 15]: > 16 µg/mL
- MIC [1, 16]: > 16 µg/mL
- MIC [1, 17]: > 16 µg/mL
- interpretation of the result ([2]; Escherichia coli isolate 1): R
- interpretation of the result ([2]; Escherichia coli isolate 2): R
- interpretation of the result ([2]; Escherichia coli isolate 3): R
- interpretation of the result ([2]; Escherichia coli isolate 4): R
- interpretation of the result ([2]; Escherichia coli isolate 5): R
- MIC [2, 18]: > 16 µg/mL
- MIC [2, 19]: > 16 µg/mL
- MIC [2, 20]: > 16 µg/mL
- MIC [2, 21]: > 16 µg/mL
- MIC [2, 22]: > 16 µg/mL
- interpretation of the result [3, 5]: R
- interpretation of the result [3, 6]: R
- interpretation of the result [3, 7]: R
- interpretation of the result [3, 8]: R
- interpretation of the result [3, 9]: R
- MIC [3, 23]: > 16 µg/mL
- MIC [3, 24]: > 16 µg/mL
- MIC [3, 25]: > 16 µg/mL
- MIC [3, 26]: > 16 µg/mL
- MIC [3, 27]: > 16 µg/mL

Molecule: CO/N=C(\C(=O)N[C@@H]1C(=O)N2C(C(=O)O)=C(CSc3nc(=O)c(=O)[nH]n3C)CS[C@H]12)c1csc(N)n1 [Co., Ceftriaxone]
- interpretation of the result ([1]; Klebsiella ssp. isolate 2): R
- interpretation of the result ([1]; Klebsiella ssp. isolate 3): R
- interpretation of the result ([1]; Klebsiella ssp. isolate 4): R
- MIC [1, 15]: > 32 µg/mL
- MIC [1, 16]: 16 µg/mL (≈ 28.9 µM)
- MIC [1, 17]: > 32 µg/mL
- interpretation of the result ([2]; Escherichia coli isolate 1): R
- interpretation of the result ([2]; Escherichia coli isolate 2): R
- interpretation of the result ([2]; Escherichia coli isolate 3): R
- interpretation of the result ([2]; Escherichia coli isolate 4): R
- interpretation of the result ([2]; Escherichia coli isolate 5): R
- MIC [2, 18]: > 32 µg/mL
- MIC [2, 19]: > 32 µg/mL
- MIC [2, 20]: > 32 µg/mL
- MIC [2, 21]: > 32 µg/mL
- MIC [2, 22]: > 32 µg/mL
- interpretation of the result [3, 5]: R
- interpretation of the result [3, 6]: R
- interpretation of the result [3, 7]: R
- interpretation of the result [3, 8]: R
- interpretation of the result [3, 9]: R
- MIC [3, 23]: > 32 µg/mL
- MIC [3, 24]: > 32 µg/mL
- MIC [3, 25]: > 32 µg/mL
- MIC [3, 26]: > 32 µg/mL
- MIC [3, 27]: > 32 µg/mL

Molecule: CO[C@@]1(NC(=O)Cc2cccs2)C(=O)N2C(C(=O)O)=C(COC(N)=O)CS[C@@H]21 [Cx., Cefoxitin]
- interpretation of the result ([1]; Klebsiella ssp. isolate 2): S
- interpretation of the result ([1]; Klebsiella ssp. isolate 3): R
- interpretation of the result ([1]; Klebsiella ssp. isolate 4): S
- MIC [1, 15]: ≤ 4 µg/mL
- MIC [1, 16]: > 16 µg/mL
- MIC [1, 17]: 8 µg/mL (≈ 18.7 µM)
- interpretation of the result ([2]; Escherichia coli isolate 1): S
- interpretation of the result ([2]; Escherichia coli isolate 2): S
- interpretation of the result ([2]; Escherichia coli isolate 3): S
- interpretation of the result ([2]; Escherichia coli isolate 4): R
- interpretation of the result ([2]; Escherichia coli isolate 5): S
- MIC [2, 18]: 8 µg/mL (≈ 18.7 µM)
- MIC [2, 19]: ≤ 4 µg/mL
- MIC [2, 20]: 8 µg/mL (≈ 18.7 µM)
- MIC [2, 21]: > 16 µg/mL
- MIC [2, 22]: 8 µg/mL (≈ 18.7 µM)
- interpretation of the result [3, 5]: R
- interpretation of the result [3, 6]: R
- interpretation of the result [3, 7]: R
- interpretation of the result [3, 8]: R
- interpretation of the result [3, 9]: R
- MIC [3, 23]: > 16 µg/mL
- MIC [3, 24]: > 16 µg/mL
- MIC [3, 25]: > 16 µg/mL
- MIC [3, 26]: > 16 µg/mL
- MIC [3, 27]: > 16 µg/mL

Molecule: Piperacillin-Tazobactam [PipT.]
- interpretation of the result ([1]; Klebsiella ssp. isolate 2): I
- minimal inhibiting concentration ([1]; Klebsiella ssp. isolate 2): 32/4
- interpretation of the result ([1]; Klebsiella ssp. isolate 3): S
- minimal inhibiting concentration ([1]; Klebsiella ssp. isolate 3): 16/4
- interpretation of the result ([1]; Klebsiella ssp. isolate 4): R
- minimal inhibiting concentration ([1]; Klebsiella ssp. isolate 4): 64/4
- interpretation of the result ([2]; Escherichia coli isolate 1): I
- minimal inhibiting concentration ([2]; Escherichia coli isolate 1): 32/4
- interpretation of the result ([2]; Escherichia coli isolate 2): S
- minimal inhibiting concentration ([2]; Escherichia coli isolate 2): 2/4
- interpretation of the result ([2]; Escherichia coli isolate 3): I
- minimal inhibiting concentration ([2]; Escherichia coli isolate 3): 32/4
- interpretation of the result ([2]; Escherichia coli isolate 4): I
- minimal inhibiting concentration ([2]; Escherichia coli isolate 4): 16/4
- interpretation of the result ([2]; Escherichia coli isolate 5): I
- minimal inhibiting concentration ([2]; Escherichia coli isolate 5): 32/4
- interpretation of the result [3, 5]: R
- minimal inhibiting concentration [3, 5]: 64/4
- interpretation of the result [3, 6]: R
- minimal inhibiting concentration [3, 6]: 64/4
- interpretation of the result [3, 7]: R
- minimal inhibiting concentration [3, 7]: 64/4
- interpretation of the result [3, 8]: S
- minimal inhibiting concentration [3, 8]: 32/4
- interpretation of the result [3, 9]: R
- minimal inhibiting concentration [3, 9]: 64/4
